Data on 23 molecules can be found in patent US20100152261A1 (MITSUBISHI TANABE PHARMA CORPORATION, priority 2005, published 2010).

Where two headings read alike, the source gives them in different places.

One assay concerns the target T1, muscarinic M2 receptor (Cavia porcellus, UniProt H0VRN8).
T1 construct: left atria were excised to prepare tissue specimens; from tissue; host or cells: isolated guinea pig left atrium (male Hartley)
T1 sequence (H0VRN8 1-466): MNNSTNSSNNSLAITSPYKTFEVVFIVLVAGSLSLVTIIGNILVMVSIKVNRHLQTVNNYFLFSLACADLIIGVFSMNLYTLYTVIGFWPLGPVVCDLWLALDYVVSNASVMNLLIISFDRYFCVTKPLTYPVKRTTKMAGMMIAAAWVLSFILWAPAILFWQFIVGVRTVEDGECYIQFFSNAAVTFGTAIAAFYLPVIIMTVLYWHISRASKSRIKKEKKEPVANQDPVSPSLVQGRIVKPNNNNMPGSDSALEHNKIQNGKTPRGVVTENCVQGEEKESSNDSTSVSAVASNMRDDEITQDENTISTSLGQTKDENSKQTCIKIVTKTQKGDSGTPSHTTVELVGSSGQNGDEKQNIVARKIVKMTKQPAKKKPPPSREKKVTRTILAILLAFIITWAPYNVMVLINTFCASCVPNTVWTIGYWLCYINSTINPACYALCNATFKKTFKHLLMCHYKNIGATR
Briefly: Muscarinic M2 antagonistic action in isolated guinea pig left atrium (carbachol-induced relaxation, Schild method). The class given is cell-based. To be noted: compound applied 30 minutes before carbachol. The protocol: Muscarinic M2 Antagonistic Action in Isolated Guinea Pig Left Atrium […] Each tissue specimen was kept warm at 37° C., suspended with a resting tension of 0.5 g in a 5-mL Magnus bath filled with a Krebs carbonate buffer bubbled with 95% O2/5% CO2. Then, contraction evoked by field electrical stimulation (4 Hz, 2 msec, 1.5×threshold potential) was measured. After a stabilization period of 60 minutes, carbachol-induced relaxation was isometrically measured and recorded by the cumulative method from 10^−8 M with an interval of 90 seconds for one concentration in an equal ratio of 3. After the measurement, the tissue specimen was immediately washed, and left for 45 minutes as a stabilization period before the next observation. The tissue specimen of which EC50 for the carbachol-induced relaxation was stabilized was considered as a control. Each test compound was applied 30 minutes before the addition of carbachol. The affinity (pA2) of the test compound was obtained in the same manner as in the case of the trachea.

The next assay deals with T2, muscarinic M3 receptor (Cavia porcellus, UniProt H0W1Z3).
T2 construct: trachea was excised, and cut at every two tracheal cartilages to prepare tissue specimens; from tissue; host or cells: isolated guinea pig trachea (male Hartley)
T2 sequence (H0W1Z3 1-590): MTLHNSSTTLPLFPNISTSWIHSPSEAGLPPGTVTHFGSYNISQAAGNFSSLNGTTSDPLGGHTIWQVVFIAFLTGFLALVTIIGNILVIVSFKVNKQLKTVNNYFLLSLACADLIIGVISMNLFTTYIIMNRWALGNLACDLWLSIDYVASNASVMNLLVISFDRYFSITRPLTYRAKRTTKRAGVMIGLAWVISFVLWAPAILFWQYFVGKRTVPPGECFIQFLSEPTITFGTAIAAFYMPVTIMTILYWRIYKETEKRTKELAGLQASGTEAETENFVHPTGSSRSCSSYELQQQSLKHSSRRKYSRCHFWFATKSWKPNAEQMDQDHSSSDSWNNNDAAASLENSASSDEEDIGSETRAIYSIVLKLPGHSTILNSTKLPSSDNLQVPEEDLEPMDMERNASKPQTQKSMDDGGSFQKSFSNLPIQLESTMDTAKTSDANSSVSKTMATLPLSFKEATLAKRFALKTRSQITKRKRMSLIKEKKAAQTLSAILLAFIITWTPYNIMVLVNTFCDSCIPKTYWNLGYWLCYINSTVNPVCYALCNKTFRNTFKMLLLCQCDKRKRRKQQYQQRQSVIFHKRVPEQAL
Briefly: Muscarinic M3 antagonistic action in isolated guinea pig trachea (carbachol-induced contraction, Schild method). The class given is cell-based. To be noted: compound applied 15 minutes before carbachol. The protocol: Muscarinic M3 Antagonistic Action in Isolated Guinea Pig Trachea
Male Hartley guinea pigs (350 to 600 g) were sacrificed by bleeding, and trachea was excised, and cut at every two tracheal cartilages to prepare tissue specimens. Each tissue specimen was kept warm at 37° C., suspended with a resting tension of 1 g in a 5-mL Magnus bath filled with a Krebs carbonate buffer containing indomethacin (1 μM) bubbled with 95% O2/5% CO2, and left for 60 minutes as a stabilization period. […] After the measurement, the tissue specimen was immediately washed, and left for 60 minutes as a stabilization period before the next contraction reaction, and the tissue specimen of which EC50 for the carbachol-induced contraction reaction was stabilized was considered as a control. Each test compound was applied 15 minutes before the addition of carbachol. The affinity (pA2) of the test compound was obtained by the Schild method (Arunlakshana, O. and Schild, H. O., Brit. J. Pharmacol., 1959, 14, 48-58).

Where [1] appears, read: isolated guinea pig left atrium.
The mark [2] stands for this setting: pA2 Left atrium M2, isolated guinea pig left atrium.
Setting [3] is: pA2 Trachea M3, isolated guinea pig trachea.
Setting [4] is: isolated guinea pig left atrium, read-out: pA2 Left atrium M2 (converted).
Where [5] appears, read: isolated guinea pig trachea, read-out: pA2 Trachea M3 (converted).

As to `C=C(CC)[n+]1ccn([C@H]2CC[C@@H](C(C(N)=O)(c3ccccc3)c3ccccc3)C2)c1C.[Br-]` [Example 78, 3-((1S,3R)-3-(Carbamoyl(diphenyl)methyl)cyclopentyl)-1-buten-2-yl-2-methyl-3H-imidazol-1-ium bromide], at muscarinic M2 receptor (setting [1]), the “pA2 Left atrium M2” value came out at 7.9. Moreover, at muscarinic M3 receptor (isolated guinea pig trachea), the “pA2 Trachea M3” value is 9.2.

As to `Cc1n([C@H]2CC[C@H](C(C(N)=O)(c3ccccc3)c3ccccc3)C2)cc[n+]1C` (relative stereo) [Example 66, 3-(trans-3-(Carbamoyl(diphenyl)methyl)cyclopentyl)-1,2-dimethyl-3H-imidazol-1-ium iodide], the Kb on muscarinic M2 receptor (setting [2]) was 39.8 nM; on muscarinic M3 receptor (setting [3]), 1.26 nM.

For `CC(=O)OCCC[n+]1ccn([C@H]2CC[C@H](C(C(N)=O)(c3ccccc3)c3ccccc3)C2)c1C` (relative stereo) [Example 75, 1-(3-Acetoxypropyl)-3-(trans-3-(carbamoyl(diphenyl)methyl)cyclopentyl)-2-methyl-3H-imidazol-1-ium bromide], the values for the Kb on muscarinic M2 receptor (setting [2]) and at muscarinic M3 receptor (setting [3]) were 158 nM and 0.501 nM, respectively. Consider `Cc1n([C@H]2CC[C@@H](C(C(N)=O)(c3ccccc3)c3ccccc3)C2)cc[n+]1CCCO` (relative stereo) [Example 54, 3-(cis-3-(Carbamoyl(diphenyl)methyl)cyclopentyl)-1-(3-hydroxy-propyl)-2-methyl-3H-imidazol-1-ium bromide], for which the Kb is 31.6 nM at muscarinic M2 receptor (setting [2]) and 1 nM at muscarinic M3 receptor (setting [3]). Taken in the same sequence, the figures for `CC1=[N+](C)CCN1[C@H]1CC[C@@H](C(C(N)=O)(c2ccccc2)c2ccccc2)C1` [Example 58, 3-((1S,3R)-3-(Carbamoyl(diphenyl)methyl)cyclopentyl)-1,2-dimethyl-4,5-dihydro-3H-imidazol-1-ium iodide] were 79.4 nM and 3.16 nM. Taken in the same sequence, the figures for `CC1=[N+](C)CCN1[C@@H]1CC[C@H](C(C(N)=O)(c2ccccc2)c2ccccc2)C1` [Example 57, 3-((1R,3S)-3-(Carbamoyl(diphenyl)methyl)cyclopentyl)-1,2-dimethyl-4,5-dihydro-3H-imidazol-1-ium iodide] were 25.1 nM and 1.26 nM. Taken in the same sequence, the figures for `CCOCC[n+]1ccn([C@H]2CC[C@@H](C(C(N)=O)(c3ccccc3)c3ccccc3)C2)c1C` (relative stereo) [Example 25, 3-(cis-3-(Carbamoyl(diphenyl)methyl)cyclopentyl)-1-(2-ethoxy-ethyl)-2-methyl-3H-imidazol-1-ium bromide] were 25.1 nM and 1.58 nM. The molecule `CN1[C@@H]2CC[C@H]1C[C@@H](OC(=O)C(CO)c1ccccc1)C2` (some centres unmarked) [Atropine, reference compound] had a Kb on muscarinic M2 receptor (setting [2]) of 2.51 nM.

Consider `COCC[n+]1cn([C@H]2CC[C@@H](C(C(N)=O)(c3ccccc3)c3ccccc3)C2)cn1` (relative stereo) [Example 72, 4-(cis-3-(Carbamoyl(diphenyl)methyl)cyclopentyl)-1-(2-methoxyethyl)-4H-[1,2,4]triazol-1-ium bromide], for which the Kb was 31.6 nM on muscarinic M2 receptor (setting [2]) and 0.794 nM on muscarinic M3 receptor (setting [3]).

As to `CC(=O)C[n+]1ccn([C@H]2CC[C@H](C(C#N)(c3ccccc3)c3ccccc3)C2)c1C` (relative stereo) [Example 88, 3-(trans-3-(Cyano(diphenyl)methyl)cyclopentyl)-2-methyl-1-(2-oxopropyl)-3H-imidazol-1-ium bromide], the figures for the Kb at muscarinic M2 receptor (setting [2]) and on muscarinic M3 receptor (setting [3]) were 251 nM and 1 nM, respectively.

For the molecule `Cc1n([C@@H]2CC[C@H](C(C(N)=O)(c3ccccc3)c3ccccc3)C2)cc[n+]1C(F)F` [Example 92, 3-((1R,3S)-3-(Carbamoyl(diphenyl)methyl)cyclopentyl)-1-difluoromethyl-2-methyl-3H-imidazol-1-ium bromide], the Kb at muscarinic M2 receptor (setting [2]) is 12.6 nM; at muscarinic M3 receptor (setting [3]), 0.398 nM. Turning to `CC(=O)C[n+]1ccn([C@H]2CC[C@H](C(C(N)=O)(c3ccccc3)c3ccccc3)C2)c1C` (relative stereo) [Example 86, 3-(trans-3-(Carbamoyl(diphenyl)methyl)cyclopentyl)-2-methyl-1-(2-oxopropyl)-3H-imidazol-1-ium bromide], the Kb is 1260 nM at muscarinic M2 receptor (setting [2]) and 1.26 nM at muscarinic M3 receptor (setting [3]).

With `Cc1n([C@H]2CC[C@@H](C(C(N)=O)(c3ccccc3)c3ccccc3)C2)cc[n+]1C` [Example 94, 3-((1S,3R)-3-(Carbamoyl(diphenyl)methyl)cyclopentyl)-1,2-dimethyl-3H-imidazol-1-ium para-toluenesulfonate], the Kb on muscarinic M2 receptor (setting [4]) was 100 nM; on muscarinic M3 receptor (setting [5]), 0.794 nM. `CC(C)[N+]1(C)[C@@H]2CC[C@H]1C[C@@H](OC(=O)C(CO)c1ccccc1)C2` (some centres unmarked) [Ipratropium, reference compound]: the Kb on muscarinic M2 receptor (setting [2]) is 3.98 nM; at muscarinic M3 receptor (setting [3]) it was 1 nM. On to `Cc1n([C@H]2CC[C@@H](C(C(N)=O)(c3ccccc3)c3ccccc3)C2)cc[n+]1CCC(C)C` [Example 79, 3-((1S,3R)-3-(Carbamoyl(diphenyl)methyl)cyclopentyl)-2-methyl-1-(3-methyl-butyl)-3H-imidazol-1-ium bromide], for which the figures for the Kb on muscarinic M2 receptor (setting [2]) and at muscarinic M3 receptor (setting [3]) were 63.1 nM and 0.631 nM, respectively. Regarding `COCC[n+]1ccn([C@H]2CC[C@@H](C(C(N)=O)(c3ccccc3)c3ccccc3)C2)c1C` [Example 76, 3-((1S,3R)-3-(Carbamoyl(diphenyl)methyl)cyclopentyl)-1-(2-methoxyethyl)-2-methyl-3H-imidazol-1-ium para-toluenesulfonate], the Kb on muscarinic M2 receptor (setting [4]) was 200 nM; at muscarinic M3 receptor (setting [5]), 1.26 nM. Take “3-(trans-3-(Carbamoyl(diphenyl)methyl)cyclopentyl)-1-cyclopentylmethyl-2-methyl-3H-imidazol-1-ium bromide [Example 68]”: the “pA2 Left atrium M2” value at muscarinic M2 receptor (setting [1]) was 7.4. Further, the “pA2 Trachea M3” value at muscarinic M3 receptor (isolated guinea pig trachea) is 9.4. In the case of `NC(=O)C(c1ccccc1)(c1ccccc1)[C@@H]1CC[C@H](n2c[n+](Cc3ccccc3)cn2)C1` (relative stereo) [Example 71, 4-Benzyl-1-(cis-3-(carbamoyl(diphenyl)methyl)cyclopentyl)-1H-[1,2,4]triazol-4-ium bromide], the results for the Kb on muscarinic M2 receptor (setting [2]) and on muscarinic M3 receptor (setting [3]) were 39.8 nM and 0.794 nM, respectively. Turning to `CC(=O)OCC[n+]1ccn([C@H]2CC[C@@H](C(C(N)=O)(c3ccccc3)c3ccccc3)C2)c1C` (relative stereo) [Example 51, 3-(cis-3-(Carbamoyl(diphenyl)methyl)cyclopentyl)-1-(2-acetoxy-ethyl)-2-methyl-3H-imidazol-1-ium bromide], the Kb at muscarinic M2 receptor (setting [2]) is 31.6 nM; on muscarinic M3 receptor (setting [3]), 1 nM. For `Cc1n([C@H]2CC[C@H](C(C(N)=O)(c3ccccc3)c3ccccc3)C2)cc[n+]1Cc1ccccc1` (single isomer, unassigned) [Example 97, 1-Benzyl-3-(trans-3-(carbamoyl(diphenyl)methyl)cyclopentyl)-2-methyl-3H-imidazol-1-ium bromide], the Kb on muscarinic M2 receptor (setting [2]) is 3.98 nM; at muscarinic M3 receptor (setting [3]), 0.1 nM. On to `COCC[n+]1ccn([C@@H]2CC[C@H](C(C(N)=O)(c3ccccc3)c3ccccc3)C2)c1C` [Example 77, 3-((1R,3S)-3-(Carbamoyl(diphenyl)methyl)cyclopentyl)-1-(2-methoxyethyl)-2-methyl-3H-imidazol-1-ium para-toluenesulfonate], for which the Kb is 6.31 nM on muscarinic M2 receptor (setting [4]) and 0.251 nM on muscarinic M3 receptor (setting [5]). On to `Cc1n([C@H]2CC[C@@H](C(C(N)=O)(c3ccccc3)c3ccccc3)C2)cc[n+]1Cc1ccc(F)cc1` [Example 85, 3-((1S,3R)-3-(Carbamoyl(diphenyl)methyl)cyclopentyl)-1-(4-fluorobenzyl)-2-methyl-3H-imidazol-1-ium bromide], for which the values for the Kb at muscarinic M2 receptor (setting [2]) and on muscarinic M3 receptor (setting [3]) were 31.6 nM and 0.794 nM, respectively. In the case of `Cc1n([C@H]2CC[C@@H](C(C(N)=O)(c3ccccc3)c3ccccc3)C2)cc[n+]1C(F)F` [Example 81, 3-((1S,3R)-3-(Carbamoyl(diphenyl)methyl)cyclopentyl)-1-difluoromethyl-2-methyl-3H-imidazol-1-ium bromide], the Kb at muscarinic M3 receptor (setting [3]) was 1 nM.
